Test results taken from publication PMC7823355, “Pretreatment Effect of Inflammatory Stimuli and Characteristics of Tryptophan Transport on Brain Capillary Endothelial (TR-BBB) and Motor Neuron Like (NSC-34) Cell Lines” (Biomedicines, 2020).
Where two headings read alike, the source gives them in different places.

How the values were obtained:
Assay type in all cases: cell-based
[1] = target: T1, LAT1 (L-type amino acid transporter 1) (Rattus norvegicus, UniProt Q63016); assay: inhibition of [3H]L-tryptophan uptake in TR-BBB cells at […] ([…] of control); settings: read-out: Relative Uptake / (% of Control)
T1 construct: gene Slc7a5; endogenous LAT1 in TR-BBB cells
T1 sequence (Q63016 whole entry): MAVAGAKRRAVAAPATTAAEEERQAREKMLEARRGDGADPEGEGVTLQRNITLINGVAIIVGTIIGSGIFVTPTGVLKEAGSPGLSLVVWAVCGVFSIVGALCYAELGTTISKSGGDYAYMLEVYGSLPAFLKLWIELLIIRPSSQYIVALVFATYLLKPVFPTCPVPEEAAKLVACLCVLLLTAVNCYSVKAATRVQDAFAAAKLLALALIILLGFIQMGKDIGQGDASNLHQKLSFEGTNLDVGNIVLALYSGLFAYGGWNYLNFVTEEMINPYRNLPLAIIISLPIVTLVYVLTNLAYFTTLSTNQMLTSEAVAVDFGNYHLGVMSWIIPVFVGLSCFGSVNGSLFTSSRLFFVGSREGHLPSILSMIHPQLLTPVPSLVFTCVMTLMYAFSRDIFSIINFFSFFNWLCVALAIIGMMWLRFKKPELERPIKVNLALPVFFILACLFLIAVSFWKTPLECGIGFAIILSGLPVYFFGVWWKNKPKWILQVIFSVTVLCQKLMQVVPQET

[2] = target: T1, LAT1 (L-type amino acid transporter 1); assay: competitive inhibition of [3H]L-tryptophan uptake in TR-BBB cells (Lineweaver-Burk)
[3] = target: T2, LAT1 (L-type amino acid transporter 1) (Mus musculus, UniProt Q9Z127); assay: radiolabelled uptake kinetics (Km) in NSC-34 cells, with LAT1 siRNA knockdown
T2 construct: gene Slc7a5; endogenous LAT1 in NSC-34 (hSOD1^WT) cells
T2 sequence (Q9Z127 whole entry): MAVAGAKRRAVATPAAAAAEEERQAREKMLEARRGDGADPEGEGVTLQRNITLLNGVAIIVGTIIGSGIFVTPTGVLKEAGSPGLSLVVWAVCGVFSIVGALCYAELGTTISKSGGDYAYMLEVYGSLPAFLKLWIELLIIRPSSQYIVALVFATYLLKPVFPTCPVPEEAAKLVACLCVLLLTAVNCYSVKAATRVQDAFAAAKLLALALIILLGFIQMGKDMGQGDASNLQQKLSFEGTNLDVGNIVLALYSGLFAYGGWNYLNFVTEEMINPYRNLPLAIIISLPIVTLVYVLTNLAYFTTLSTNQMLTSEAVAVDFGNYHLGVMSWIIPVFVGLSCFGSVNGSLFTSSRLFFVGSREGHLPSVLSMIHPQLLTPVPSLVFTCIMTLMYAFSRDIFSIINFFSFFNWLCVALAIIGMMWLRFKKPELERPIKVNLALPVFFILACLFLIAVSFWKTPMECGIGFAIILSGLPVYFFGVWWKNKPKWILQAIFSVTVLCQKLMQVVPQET
Text: radiolabelled uptake kinetics (Km) in NSC-34 cells, with LAT1 siRNA knockdown on LAT1 (L-type amino acid transporter 1) | LAT1 mRNA expression and tryptophan uptake results indicated significant depletion effect in LAT1 siRNA-transfected WT and MT cell lines

NC1(C(=O)O)CC2CCC1C2 (stereo not shown) [BCH]
remaining activity at 2000 µM [1]: 21 ± 1.3%

NCC(CC(=O)O)c1ccc(Cl)cc1 (stereo not shown) [Baclofen]
Ki ([2]; read-out: Ki): 1620 µM

NCC1(CC(=O)O)CCCCC1 [Gabapentin]
Ki [2]: 210 µM

N[C@@H](Cc1c[nH]c2ccccc12)C(=O)O [L-tryptophan]
Km [3]: 33.1 ± 1.2 µM
